Measurements from US6924304B2, “Cell proliferation inhibitors” (Abbott Laboratories, priority 1999, dated 2005).

Tests used:
[1] = system: human lung large cell carcinoma, MDR negative (NCI-H460) cells; assay: 48-hour cellular proliferation assay (sulforhodamine staining), NCI-H460 cells; type: cell-based; settings: Homo sapiens, 10^−4 M compound, read-out: NCI-460 % inhibition at 10^−4 M
Procedure: (§1) Compounds of this invention were tested in a 48-hour cellular proliferation assay which uses human colon adenocarcinoma, MDR positive (HCT-15) cells, and human lung large cell carcinoma, MDR negative (NCI-H460) cells, in the 96-well microtitre format described in Skehan P., et al. New Colorimetric Cytotoxicity Assay for Anticancer Drug Screening. 1990, J. Natl. Cancer Inst. 82:1107-1112, hereby incorporated by reference. Briefly, the wells of a microtitre plate were charged sequentially with cultured cells and compounds of the invention (1.0×10^−4 to 1.0×10^−11 M in 10% DMSO prepared by dissolving compounds of the invention in DMSO and adding 11 μL of the DMSO solution to 100 μL of culture medium for a final DMSO concentration of 10%). Two of the following controls were also present in each microtitre plate: a solvent (DMSO) control without drug that yielded a 0% inhibition level and a trichloroacetic acid-treated well that yielded a 100% inhibition level. The cells were grown in culture (37° C., 5% CO2 atmosphere) for 48 hours then fixed by the addition of trichloroacetic acid. The wells were stained with sulforhodamine, washed with 1% acetic acid, and treated with 0.01 M tris buffer (100 μL) to solubilize the adherent dye. The absorbance of the dye solution was measured with a Molecular Devices SpectraMax340 plate reader. The percent inhibition values were obtained by calculating the proportional response of the experimental values to the absorbance values of the controls.

[2] = system: human colon adenocarcinoma, MDR positive (HCT-15) cells; assay: 48-hour cellular proliferation assay (sulforhodamine staining), HCT-15 cells; type: cell-based; settings: Homo sapiens, 10^−4 M compound, HCT-15 cells (MDR positive)
Procedure: as §1

Structure (SMILES)	inhibition at 100 µM [1]	inhibition at 100 µM [2]
COc1ccc(S(=O)(=O)Oc2cc(OC)c(OC)c(OC)c2)cc1 [Example 40, (3,4,5-trimethoxyphenyl) 4-methoxybenzenesulfonate]	99.9%	99.9%
COc1cc(OS(=O)(=O)c2ccc(C)cc2)cc(OC)c1OC [Example 41, (3,4,5-trimethoxyphenyl) 4-methylbenzenesulfonate]	99.5%	99.8%
COc1cc(S(=O)(=O)Oc2ccc3[nH]ccc3c2)cc(OC)c1OC [Example 42, 1H-indol-5-yl 3,4,5-trimethoxybenzenesulfonate]	100%	100%
COc1ccc(S(=O)(=O)Oc2cc(OC)c(OC)c(OC)c2)cc1N [Example 43, (3,4,5-trimethoxyphenyl) 3-amino-4-methoxybenzenesulfonate]	100%	100%
COc1cc(OS(=O)(=O)c2ccc(N(C)C)cc2)cc(OC)c1OC [Example 44, (3,4,5-trimethoxyphenyl)-4-(dimethylamino)benzenesulfonate]	99.9%	100%
COc1cc(S(=O)(=O)Oc2ccc(C)cc2)cc(OC)c1OC [Example 45, 4-methylphenyl 3,4,5-trimethoxybenzenesulfonate]	99.4%	99.9%
COc1cc(OS(=O)(=O)c2ccc3c(c2)CCN3C)cc(OC)c1OC [Example 46, 3,4,5-trimethoxyphenyl 1-methyl-5-indolinesulfonate]	99.5%	99.6%
COc1ccc(OS(=O)(=O)c2cc(OC)c(OC)c(OC)c2)cc1 [Example 47, 4-methoxyphenyl 3,4,5-trimethoxybenzenesulfonate]	99.9%	100%
COc1ccc(C(C)(C)S(=O)(=O)c2cc(OC)c(OC)c(OC)c2)cc1 [Example 88, 1,2,3-trimethoxy-5-((1-(4-methoxyphenyl)-1-methylethyl)sulfonyl)benzene]	58.4%	85.5%
COc1ccc(CSc2cc(OC)c(OC)c(OC)c2)cc1N [Example 89, 2-methoxy-5-(((3,4,5-trimethoxyphenyl)sulfanyl)methyl)aniline]	99.9%	99.9%
COc1ccc(C[S+]([O-])c2cc(OC)c(OC)c(OC)c2)cc1N (stereo not shown) [Example 90, 2-methoxy-5-(((3,4,5-trimethoxyphenyl)sulfinyl)methyl)aniline]	99.8%	99.5%
COc1ccc(CS(=O)(=O)c2cc(OC)c(OC)c(OC)c2)cc1N [Example 91, 2-methoxy-5-(((3,4,5-trimethoxyphenyl)sulfonyl)methyl)aniline]	99.8%	95%
COc1ccc(C(C)(C)S(=O)(=O)c2cc(OC)c(OC)c(OC)c2)cc1N [Example 92, 2-methoxy-5-(1-methyl-1-((3,4,5-trimethoxyphenyl)sulfonyl)ethyl)aniline]	9.1%	67.1%
COc1ccc(SCc2cc(OC)c(OC)c(OC)c2)cc1 [Example 93, 1,2,3-trimethoxy-5-(((4-methoxyphenyl)sulfanyl)methyl)benzene]	98.6%	99.9%
COc1ccc(S(=O)(=O)Cc2cc(OC)c(OC)c(OC)c2)cc1 [Example 94, 1,2,3-trimethoxy-5-(((4-methoxyphenyl)sulfonyl)methyl)benzene]	90.1%	97.7%
COc1ccc(S(=O)(=O)C(C)(C)c2cc(OC)c(OC)c(OC)c2)cc1 [Example 95, 1,2,3-trimethoxy-5-(1-((4-methoxyphenyl)sulfonyl)-1-methylethyl)benzene]	9.1%	84.8%
COc1ccc(S(=O)(=O)Cc2cc(OC)c(OC)c(OC)c2)cc1N [Example 96, 2-methoxy-5-((3,4,5-trimethoxybenzyl)sulfonyl)aniline]	99.9%	99.8%
